“Also recorded” adds a separate entry of the source.
What was measured:
[1] = biological target: T1, KRAS^G12D-GDP (Homo sapiens (Human), UniProt P01116, G12D); test: NMR Kd, KRAS^G12D-GDP; type: binding; settings: 1H 1D protein-observed NMR, read-out: 1H 1D PO NMR Kd
Procedure: (§1) ^1H/^15N Fast-HSQC experiments (Mori et al., Journal of Magnetic Resonance, Series B, Volume 108, Issue 1, July 1995, Pages 94-98) were recorded at a protein concentration of 50-100 μM.
(§2) Dissociation constants were obtained by monitoring changes in chemical shifts as a function of ligand concentration. The changes in chemical shifts (d) were calculated according to the following equation (Williamson, Progress in Nuclear Magnetic Resonance Spectroscopy, Volume 73, August 2013, Pages 1-16): d=√(1/2[δ_H^2+[…]]), Where δ are the changes in chemical shift in ppm for ^1H and ^15N and the correction factor (α) was set at 0.15.
(§3) ^1H 1D protein-observed experiments were recorded with 15-50 μM protein. The standard Bruker 1D ^1H sequence with excitation sculpting (zgesgp) was employed. A relaxation delay of 1 s was employed in order to use 256 scans while still keeping experimental time fairly short. Changes in protein chemical shift or peak intensity in the methyl region were monitored against compound concentration.
(§4) The activity of compounds of the invention regarding KRAS^G12D-GDP was measured in the same as in Example 80. The results obtained with the compounds in the various assays described above are depicted in Table 23.

[2] = biological target: T1, KRAS^G12D-GDP; test: 19F T2-CPMG score, KRAS^G12D-GDP; type: binding
Procedure: (§5) Since the fragment library was curated using phosphate buffer, 25 mM sodium phosphate pH 7.4, 150 mM NaCl, 5 mM MgCl2, 1 mM TCEP-d16, 10% D2O Fresh TCEP was used for experiments. Screening was performed using ^1H-decoupled 1D ^19F experiment Bruker experiment (zgfhigqn.2) with 64 scans and a relaxation delay of 5 seconds. 50 μM HRas^G12V and 240 μM of each fragment in pools (mixtures) were used.
(§6) Hit confirmation was performed using the same ^19F experiment as the screen. Ligand-observed 1D ^1H, protein-observed 1D ^1H, ^1H T2-CPMG as well as Saturation Transfer Difference (STD) experiments were also run on the same samples. Ligand-observed 1D ^1H was run using the standard Bruker sequence with excitation sculpting (zgesgp) with a relaxation delay of 10 seconds and 16 scans per spectrum. Protein-observed 1D ^1H was performed using the same sequence with a relaxation delay of 1 second and 256 scans in order to increase the signal-to-noise of the protein resonances, while keeping the experimental time relatively short. The ^1H T2-CPMG experiment employed a modified version of the Bruker 1D ^1H zgesgp experiment with the addition of a CPMG pulse train after the first 90° excitation pulse. Total duration for each spin echo was fixed at 1 ms (τ=500 μs), while the number of echoes in the pulse train was varied according to the total time (T). The number of scans for each spectrum was 4 and eight delay times were run on each sample, ranging from 1 ms to 800 ms.
as §4

[3] = biological target: T2, HRas^G12V (Homo sapiens (Human), UniProt P01112, G12V); test: Overall binding/activity in the various assays (NMR consensus binding)
In short: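 Fragments (240 µM each, pooled) screened against 50 µM HRas^G12V in 25 mM sodium phosphate pH 7.4, 150 mM NaCl, 5 mM MgCl2, 1 mM TCEP-d16 by 1H-decoupled 1D 19F NMR. Hits confirmed by ligand- and protein-observed 1D 1H, STD and T2-CPMG (aggregation check); consensus binding ranked, with 15N HSQC for sites and Kd.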

[4] = biological target: T2, HRas^G12V; test: Dissociation constant by NMR (1H/15N Fast-HSQC, 1H 1D protein-observed); type: binding; settings: HRas^G12V; read-out: NMR Kd
Procedure: All NMR experiments were collected using 3 mm NMR tubes on a 600 MHz Bruker Avance III spectrometer equipped with a QCI helium cryoprobe and a SampleJet sample changer. The buffer used for NMR experiments was 25 mM sodium phosphate pH 7.4, 150 mM NaCl, 5 mM MgCl2, 1 mM TCEP-d16, 10% D2O. Data were processed using Bruker TopSpin.
as §1, §2, §3

[5] = biological target: T1, KRAS^G12D-GDP; test: Overall activity in the various assays, KRAS^G12D-GDP; type: binding
Procedure: as §4

[6] = biological target: T3, wild type HRAS (Homo sapiens (Human), UniProt P01112); test: 19F T2-CPMG score, wild type HRAS; type: binding
Procedure: as §5, §6
(§7) The activity of compounds of the invention regarding wild type HRAS was measured in the same as in Example 80. The results obtained with the compounds in the various assays described above are depicted in Table 2.

[7] = biological target: T3, wild type HRAS; test: 19F DLB score, wild type HRAS; type: binding
Procedure: as §5, §6, §7

Row | SMILES | Kd [1] [µM] | 19F T2-CPMG Score [2] | Activity ranking on HRas^G12V (in words) [3] | Kd [4] [µM] | Activity ranking on KRAS^G12D-GDP (in words) [5] | 19F T2-CPMG Score [6] | 19F DLB Score [7]
1 | CC(C)N1CCC(NC(=O)Cc2c[nH]c3cc(F)ccc23)CC1 [Compound 10018] | 5020 to 6250 | 12.20 | More active | 3030 to 3700 | most active | – | –
2 | O=C(Cc1c[nH]c2cc(F)ccc12)N1CCC(O)CC1 [Compound 10086] | 1900 to 4030 | >LOQ | More active | 2370 to 4000 | most active | – | –
3 | CN(C)CCOc1cccc(NC(=O)Cc2c[nH]c3cc(F)ccc23)c1 [Compound 10095, N-(3-(2-(dimethylamino)ethoxy)phenyl)-2-(6-fluoro-1H-indol-3-yl)acetamide] | – | >LOQ | More active; also recorded: Most active | 36 | – | <LLOQ | 4.57
4 | CN(C)CC(=O)Nc1cccc(NC(=O)Cc2c[nH]c3cc(F)ccc23)c1 [compound 10097] | – | >LOQ | More active; also recorded: Most active | 108 | – | <LLOQ | 7.61

— patent US20240408064A1, “RAS INHIBITORS, COMPOSITIONS AND METHODS OF USE THEREOF” (GENETOLEAD INC., priority 2021, published 2024)
